Test results as given in publication PMC8344235, “α-Amylase and dipeptidyl peptidase-4 (DPP-4) inhibitory effects of Melicope latifolia bark extracts and identification of bioactive constituents using in vitro and in silico approaches” (Pharmaceutical Biology, 2021).
“And” between values parts separate entries of the source, which are not always exact repeats. Equal entries are not always repeated. Where two headings read alike, the source gives them in different places. Marks after values point to notes of the source that are not given here.

What was measured:
[1] = target: T1, human-recombinant DPP-4 enzyme (Homo sapiens, UniProt P27487); experiment: DPP-4 inhibitory assay (fluorescence screening kit); format: biochemical
T1 construct: purchased Cayman Chemical (Ann Arbor, MI)
Experimental: DPP-4 inhibitor screening kit (Cayman Chemical, Ann Arbor, MI) was used to evaluate the DPP-4 inhibitory activity of the test samples based on a fluorescence assay method. Briefly, samples (10 μL) with different concentrations in DMSO were each pipetted into a 96-well plate followed by the addition of diluted assay buffer (30 μL), diluted human-recombinant DPP-4 enzyme solution (10 μL), and diluted fluorogenic substrate, Gly-Pro-aminomethylcoumarin (AMC) (50 μL). […] The 96-well plate was shaken and incubated for 30 min at 37 °C.

[2] = DPPH free radical scavenging assay; details: for IC50 / DPPH IC50: mean ± SD of triplicates; for DPPH IC50: ND = IC50 not detected at highest tested concentration (1 mg/mL)
Experimental: Free radical scavenging ability of M. latifolia fractions and compounds were determined using stable free radical 2,2-diphenyl-1-picrylhydrazyl (DPPH) following the method described by Tan et al. ([2019]). The extracts (170 μL) at varying concentrations ([…]) were mixed with 30 μL of methanolic DPPH solution (300 μM) in a 96-well microplate. The mixtures were then incubated at room temperature for 30 min in the dark, followed by an absorbance measurement at 517 nm. For the negative control well, the extract was replaced by methanol. Ascorbic acid, α-tocopherol, and BHT were used as standards.

[3] = β-Carotene bleaching assay; details: samples 1 mg/mL, 50 °C, 2 h
Experimental: The antioxidant capacity of M. latifolia fractions and isolated constituents by β-carotene bleaching was performed according to a method described by Kassim et al. ([2019]). In brief, 210 µL of β-carotene solution (1 mg/mL in chloroform) was added to Tween 20 (42 µL) and linoleic acid (5 µL) in a round bottom flask. The chloroform was removed by rotary evaporation prior to the addition of […] of distilled water and shaken to form an emulsion. The emulsion (200 µL) was then transferred into each well of a 96-well microplate that contains 50 µL of samples (1 mg/mL). The mixture was incubated at 50 °C in the dark for 2 h, and its absorbance was measured at 470 nm at the initial time (t = 0) and every subsequent 30 min for 2 h (t = 2). Ascorbic acid, α-tocopherol, and BHT were used as positive controls. Methanol was used to replace the test samples as a negative control. The antioxidant activity (AA) was calculated according to the formula (5): (5) AA% = 1 − [(At=0 – At=2)/(Ac=0 – Ac=2)] × 100 whereby At=0 and At=2 are the absorbance of the samples measured at 0 and 2 h, respectively; Ac=0 and Ac=2 are the absorbance of negative control measured at 0 and 2 h, respectively.

[4] = highest tested concentration, read-out: DPP-4 IC50 not detected at the highest concentration

T1 sequence (P27487 whole entry): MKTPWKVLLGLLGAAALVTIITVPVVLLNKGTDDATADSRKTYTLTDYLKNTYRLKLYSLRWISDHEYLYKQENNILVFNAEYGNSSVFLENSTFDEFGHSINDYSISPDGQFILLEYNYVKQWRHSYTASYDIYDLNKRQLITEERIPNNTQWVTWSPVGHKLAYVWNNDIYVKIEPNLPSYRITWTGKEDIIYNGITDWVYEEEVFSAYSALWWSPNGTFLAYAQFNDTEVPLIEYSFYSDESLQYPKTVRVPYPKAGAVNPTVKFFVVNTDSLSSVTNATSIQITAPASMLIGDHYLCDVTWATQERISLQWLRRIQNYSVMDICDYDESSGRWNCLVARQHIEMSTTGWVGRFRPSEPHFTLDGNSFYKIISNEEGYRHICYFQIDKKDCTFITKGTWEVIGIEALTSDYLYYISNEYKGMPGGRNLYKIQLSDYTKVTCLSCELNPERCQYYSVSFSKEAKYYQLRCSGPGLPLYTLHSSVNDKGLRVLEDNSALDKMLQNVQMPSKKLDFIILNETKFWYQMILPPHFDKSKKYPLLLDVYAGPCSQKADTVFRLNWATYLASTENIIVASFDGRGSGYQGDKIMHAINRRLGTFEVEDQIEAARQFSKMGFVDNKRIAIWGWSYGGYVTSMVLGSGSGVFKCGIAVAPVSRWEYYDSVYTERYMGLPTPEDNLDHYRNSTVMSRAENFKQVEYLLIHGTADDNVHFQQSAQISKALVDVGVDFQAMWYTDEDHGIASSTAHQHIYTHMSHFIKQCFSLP

Compound | IC50 [1, 4] [µM] | IC50 [2] [µM] | DPPH IC50 [2] [µg/mL] | β-Carotene bleaching activity AA (%) [3] | IC50 ([1]; mean ± SD of triplicates, ND = IC50 not detected at highest tested concentration (1 mg/mL), read-out: DPP-4 IC50 (converted)) [µM] | IC50 ([1]; mean ± SD of triplicates, read-out: DPP-4 IC50 (converted)) [µM] | DPPH IC50 not detected at the highest concentration ([2]; highest tested concentration) [mg/mL]
CC[C@H](CC[C@@H](C)[C@H]1CC[C@H]2[C@@H]3CC=C4C[C@@H](O)CC[C@]4(C)[C@H]3CC[C@]12C)C(C)C [Compound 1, β-sitosterol] | > 2410 |  |  |  |  |  | 
COC(=O)/C=C/c1ccc(O)cc1 [Compound 3, methyl p-coumarate] |  |  |  | 1.08 ± 0.02^g % | 911 | 911 | > 1
O=C1O[C@H]([C@@H](O)CO)C(O)=C1O [Ascorbic acid] |  | 85.2 | 15.00 ± 0.01 | 35.23 ± 0.02^g % |  |  | 
Cc1cc(C(C)(C)C)c(O)c(C(C)(C)C)c1 [BHT, butylated hydroxytoluene] |  | 44.9 | 9.90 ± 0.03 | 76.42% and 76.42 ± 0.02^c % |  |  | 

More lines, main results first:

IC50 [1, 4] [µM] | IC50 [2] [µM] | DPPH IC50 [2] [µg/mL] | Compound | β-Carotene bleaching activity AA (%) [3] | IC50 ([1]; mean ± SD of triplicates, ND = IC50 not detected at highest tested concentration (1 mg/mL), read-out: DPP-4 IC50 (converted)) [µM] | IC50 ([1]; mean ± SD of triplicates, read-out: DPP-4 IC50 (converted)) [µM] | DPPH IC50 not detected at the highest concentration ([2]; highest tested concentration) [mg/mL]
 | 43.6 | 18.79 ± 0.01 | Cc1c(C)c2c(c(C)c1O)CC[C@@](C)(CCC[C@H](C)CCC[C@H](C)CCCC(C)C)O2 [α-Tocopherol] | 98.01 ± 0.02^a % |  |  | 
> 3620 | 6430 | 1776.01 ± 0.16 | COc1c(OC)c2c(OC)c3ccoc3cc2oc1=O [Compound 2, halfordin] | 88.48% and 88.48 ± 0.02^b % |  |  | 
> 6490 |  |  | O=C(O)c1ccc(O)c(O)c1 [Compound 4, protocatechuic acid] |  |  |  | 
